Measurements published in ChEMBL document CHEMBL4480377, “Synthesis and biological evaluation of zinc chelating compounds as metallo-β-lactamase inhibitors” (Medchemcomm, 2019).

Key:
[1] = Cytotoxicity against human MiaPaCa cells after 72 hrs by MTT assay; format: cell-based; details: MIA PaCa-2, 72 h
[2] = target: Metallo-beta-lactamase type 2 (Klebsiella pneumoniae) (UniProt C7C422); experiment: Inhibition of NDM1 in Pseudomonas aeruginosa assessed as potentiation of meropenem-induced antibacterial activity by measuring meropenem MIC at 125 uM after 20 hrs by broth microdilution assay (meropenem alone = 32 to 64 mg/L)
[3] = target: Beta-lactamase VIM-2 (Pseudomonas aeruginosa) (UniProt Q9K2N0); experiment: Inhibition of beta-lactamase VIM-2 in Pseudomonas aeruginosa assessed as potentiation of meropenem-induced antibacterial activity by measuring meropenem MIC at 125 uM after 20 hrs by broth microdilution assay (meropenem alone = 32 to 64 mg/L)
[4] = tested on: COLO357; experiment: Cytotoxicity against human Colo-357 cells after 72 hrs by MTT assay; format: cell-based; details: COLO357, 72 h
[5] = Binding affinity to zinc assessed as dissociation constant for compound-metal complex
[6] = tested on: MDA-MB-231; experiment: Cytotoxicity against human MDA-MB-231 cells after 72 hrs by MTT assay; format: cell-based; details: MDA-MB-231, 72 h
[7] = target: Metallo-beta-lactamase type 2 (Klebsiella pneumoniae) (UniProt C7C422); experiment: Inhibition of NDM1 in Pseudomonas aeruginosa assessed as potentiation of meropenem-induced antibacterial activity by measuring meropenem MIC at 50 uM after 20 hrs by broth microdilution assay (meropenem alone = 32 to 64 mg/L)
[8] = target: Beta-lactamase VIM-2 (Pseudomonas aeruginosa) (UniProt Q9K2N0); experiment: Inhibition of beta-lactamase VIM-2 in Pseudomonas aeruginosa assessed as potentiation of meropenem-induced antibacterial activity by measuring meropenem MIC at 50 uM after 20 hrs by broth microdilution assay (meropenem alone = 32 to 64 mg/L)
[9] = target: Metallo-beta-lactamase type 2 (Klebsiella pneumoniae) (UniProt C7C422); experiment: Inhibition of NDM1 in Pseudomonas aeruginosa assessed as potentiation of meropenem-induced antibacterial activity by measuring meropenem MIC at 16 uM after 20 hrs by broth microdilution assay (meropenem alone = 32 to 64 mg/L)
[10] = target: Metallo-beta-lactamase type 2 (Klebsiella pneumoniae) (UniProt C7C422); experiment: Inhibition of NDM1 in Pseudomonas aeruginosa assessed as potentiation of meropenem-induced antibacterial activity by measuring meropenem MIC at 31 uM after 20 hrs by broth microdilution assay (meropenem alone = 32 to 64 mg/L)
[11] = target: Beta-lactamase VIM-2 (Pseudomonas aeruginosa) (UniProt Q9K2N0); experiment: Inhibition of beta-lactamase VIM-2 in Pseudomonas aeruginosa assessed as potentiation of meropenem-induced antibacterial activity by measuring meropenem MIC at 31 uM after 20 hrs by broth microdilution assay (meropenem alone = 32 to 64 mg/L)
[12] = target: Beta-lactamase VIM-2 (Pseudomonas aeruginosa) (UniProt Q9K2N0); experiment: Inhibition of beta-lactamase VIM-2 in Pseudomonas aeruginosa assessed as potentiation of meropenem-induced antibacterial activity by measuring meropenem MIC at 16 uM after 20 hrs by broth microdilution assay (meropenem alone = 32 to 64 mg/L)
[13] = tested on: HepG2; experiment: Cytotoxicity against human HepG2 cells after 72 hrs by MTT assay; format: cell-based; details: HepG2, 72 h

Sequence of Metallo-beta-lactamase type 2 (Klebsiella pneumoniae) (C7C422 whole entry): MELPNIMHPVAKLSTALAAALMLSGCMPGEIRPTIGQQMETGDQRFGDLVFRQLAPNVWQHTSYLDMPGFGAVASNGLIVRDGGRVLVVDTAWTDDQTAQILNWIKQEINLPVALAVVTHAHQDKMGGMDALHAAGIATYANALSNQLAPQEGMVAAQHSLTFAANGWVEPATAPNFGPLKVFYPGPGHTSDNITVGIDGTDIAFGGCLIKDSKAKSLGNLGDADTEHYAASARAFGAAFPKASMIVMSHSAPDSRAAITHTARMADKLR

SMILES | IC50 [1] [µM] | MIC [2] [µg/mL] | MIC [3] [µg/mL] | IC50 [4] [µM] | pKd [5] | IC50 [6] [µM] | MIC [7] [µg/mL] | MIC [8] [µg/mL] | MIC [9] [µg/mL] | MIC [10] [µg/mL] | MIC [11] [µg/mL] | MIC [12] [µg/mL] | IC50 [13] [µM]
C[C@@H](N)C(=O)N[C@H](C)C(=O)NCCc1ccc(NC(=O)CN(Cc2ccccn2)Cc2ccccn2)cc1.Cl | 118 | 8 | 16 | 21 | 7.6 | 127 |  |  |  |  |  |  | 
COC(=O)[C@@H](C)NC(=O)[C@@H](C)NC(=O)CCC(=O)NCCc1ccc(NC(=O)CN(Cc2ccccn2)Cc2ccccn2)cc1 | 45 | 8 to 16 | 32 | 152 | 7.6 | 141 |  |  |  |  |  |  | 
COC(=O)[C@@H](C)NC(=O)[C@@H](C)NC(=O)Cc1ccc(-n2cc(CN(Cc3ccccn3)Cc3ccccn3)nn2)cc1 | 119 |  |  | 105 | 8.9 | 125 | 4 | 8 |  |  |  |  | 
COC(=O)[C@@H](C)NC(=O)[C@@H](C)NC(=O)Cn1cc(CN(Cc2ccccn2)Cc2ccccn2)nn1 | 116 | < 0.5 | 2 | 133 | 8.9 | 152 |  |  | 32 | 16 | 64 | 32 | 
COC(=O)[C@H](C)NC(=O)[C@H](C)NC(=O)Cn1cc(CN(Cc2ccccn2)Cc2ccccn2)nn1 | 105 | 2 | 8 | 96 | 8.9 | 157 |  |  | 16 | 8 | 16 | 32 | 
COC(=O)[C@H](C)NC(=O)[C@H](C)NC(=O)Cc1ccc(NC(=O)CN(CCN(Cc2ccccn2)Cc2ccccn2)Cc2ccccn2)cc1 |  | 0.125 | 1 |  |  |  |  |  | 8 | 0.125 | 1 | 32 | 
Cl.NCC(=O)NCC(=O)NCCc1ccc(NC(=O)CN(CCN(Cc2ccccn2)Cc2ccccn2)Cc2ccccn2)cc1 | 21 |  |  | 24 | 12.3 | 15 |  |  |  |  |  |  | 
COC(=O)CNC(=O)CNC(=O)Cc1ccc(NC(=O)CN(CCN(Cc2ccccn2)Cc2ccccn2)Cc2ccccn2)cc1 | 12 | 0.125 | 1 | 12 | 12.3 | 7.8 |  |  | 16 | 2 | 2 | 32 | 
COC(=O)[C@@H](C)NC(=O)[C@@H](C)NC(=O)Cc1ccc(NC(=O)CN(CCN(Cc2ccccn2)Cc2ccccn2)Cc2ccccn2)cc1 | 5.9 | 0.125 | 1 | 5.4 | 12.3 | 4.1 |  |  | 16 | 0.125 | 4 | 32 | 
CCOC(=O)Cc1ccc(-n2cc(CN(Cc3ccccn3)Cc3ccccn3)nn2)cc1 |  |  |  |  |  |  | 4 | 16 |  |  |  |  | 
COC(=O)CNC(=O)[C@H](CCCCNC(C)=O)NC(=O)Cn1cc(CN(Cc2ccccn2)Cc2ccccn2)nn1 |  |  |  |  |  |  | 8 | 32 |  |  |  |  | 
COC(=O)CNC(=O)CNC(=O)Cc1ccc(-n2cc(CN(Cc3ccccn3)Cc3ccccn3)nn2)cc1 |  |  |  |  |  |  | 4 | 8 |  |  |  |  | 
COC(=O)[C@@H](C)NC(=O)[C@H](CCCCNC(=O)Cn1cc(CN(Cc2ccccn2)Cc2ccccn2)nn1)NC(C)=O |  |  |  |  |  |  | 8 | 16 |  |  |  |  | 
OC1O[C@H](Cn2cc(CN(CCN(Cc3ccccn3)Cc3ccccn3)Cc3ccccn3)nn2)[C@H](O)[C@H](O)[C@H]1O (some centres not stated) |  |  |  |  |  |  |  |  | 8 | 0.125 | 2 | 32 | 1.7
C[C@@H](N)C(=O)N[C@H](C)C(=O)NCCc1ccc(-n2cc(CN(Cc3ccccn3)Cc3ccccn3)nn2)cc1 |  |  |  |  |  |  | 4 | 4 |  |  |  |  | 
NCC(=O)NCC(=O)NCCc1ccc(-n2cc(CN(Cc3ccccn3)Cc3ccccn3)nn2)cc1 |  |  |  |  |  |  | 4 | 8 |  |  |  |  | 
CC(=O)N[C@@H](CCCCNC(=O)Cn1cc(CN(Cc2ccccn2)Cc2ccccn2)nn1)C(=O)NCB(O)O | 119 | 0.5 | 2 | 82 | 8.9 | 128 |  |  | 16 | 8 | 32 | 32 | 
CC(=O)NCCCC[C@H](NC(=O)Cn1cc(CN(Cc2ccccn2)Cc2ccccn2)nn1)C(=O)NCB(O)O | 66 | 0.5 | 2 | 112 | 8.9 | 101 |  |  | 16 | 8 | 16 | 32 | 
COC(=O)[C@@H](CCCCn1cc(CN(Cc2ccccn2)Cc2ccccn2)nn1)NC(=O)[C@@H](C)NC(C)=O | 128 | 1 | 4 | 101 | 8.9 | 131 |  |  |  |  |  |  | 
COC(=O)[C@@H](C)NC(=O)[C@H](CCCCNC(C)=O)NC(=O)Cn1cc(CN(Cc2ccccn2)Cc2ccccn2)nn1 |  |  |  |  |  |  | 8 | 32 |  |  |  |  | 
C[C@H](N)C(=O)N[C@@H](C)C(=O)NCCc1ccc(NC(=O)CN(CCN(Cc2ccccn2)Cc2ccccn2)Cc2ccccn2)cc1.Cl | 5.5 | 0.125 | 2 | 6.8 | 12.3 | 5.1 |  |  | 16 | 0.125 | 4 | 32 | 
COC(=O)CNC(=O)CNC(=O)Cn1cc(CN(Cc2ccccn2)Cc2ccccn2)nn1 | 176 | 2 | 4 | 137 | 8.9 | 168 |  |  |  |  |  |  | 
c1ccc(CNCCN(Cc2ccccn2)Cc2ccccn2)nc1 |  | < 0.25 | 0.5 |  |  |  |  |  | 8 | 0.125 | 1 | 32 | 
CN(CCN(Cc1ccccn1)Cc1ccccn1)CC(=O)N(C)C[C@H](O)[C@@H](O)[C@H](O)[C@H](O)CO |  |  |  |  |  |  |  |  | 32 | 0.25 | 1 | 32 | 118
COC(=O)[C@@H](C)NC(=O)[C@@H](C)NC(=O)CN(Cc1ccccn1)Cc1ccccn1 | 98 | 8 to 16 | 16 | 90 | 7.6 | 184 |  |  |  |  |  |  | 
COC(=O)CNC(=O)[C@H](CCCCNC(=O)Cn1cc(CN(Cc2ccccn2)Cc2ccccn2)nn1)NC(C)=O |  |  |  |  |  |  | 4 | 16 |  |  |  |  | 
COC(=O)[C@@H](CCCCNC(=O)Cn1cc(CN(Cc2ccccn2)Cc2ccccn2)nn1)NC(=O)[C@@H](C)N | 106 |  |  | 114 | 8.9 | 127 |  |  |  |  |  |  | 
